Test [1] has as its system PBMCs derived from patients with untreated or relapsed/refractory (R/R) CLL. Briefly: Caspase-Glo 3/7 activity assay in CLL patient PBMCs. In kind it is cell-based. The settings on record: 6 h treatment; ex vivo patient PBMCs.
For test [2], the system named is LY2264 (DLBCL) patient-derived xenografts (PDX). As to the kind of experiment: LY2264 (DLBCL) patient-derived xenograft, tumor growth. In kind it is in vivo. An excerpt: See FIG. 6 (Data represented as mean±SEM. N=8, *P<0.05, **P<0.001, ***P<0.001 by Mann-Whitney U test).
Test [3] concerns Mino CDX model of Ibrutinib resistant MCL. Briefly: Mino CDX model of Ibrutinib resistant MCL, tumor growth. In kind it is in vivo. The settings on record: Formula (I) i.v. 15 mg/kg, QW BID q2h. The source says: Anti-tumor activity remains similar to the parental Mino model. Ibrutinib-resistance was induced through repeat in vivo passage and treatment with Ibrutinib. See FIG. 15 (Data represented as mean±SEM. N=7, *P<0.05, ****P<0.0001 by Mann-Whitney U test).

Test [4] has as its system U-2932 CDX. As to the kind of experiment: U-2932 (DLBCL) CDX, tumor growth. In kind it is in vivo. An excerpt: (§1) See FIG. 9 (Data represented as mean±SEM. N=8, *P<0.05, **P<0.001, ***P<0.001 by Mann-Whitney U test).
Test [5] concerns SUDHL4 subcutaneous xenograft. As to the kind of experiment: SUDHL4 subcutaneous xenograft, tumor growth. In kind it is in vivo. The settings on record: Formula (I) 30 mg/kg intravenously QW, BID q2h. An excerpt:
(§2) See FIG. 3 (Data represented as mean±SEM. N=8, ***P<0.001, ****P<0.0001 by Mann-Whitney U test).

Test [6] concerns DLBCL (SUDHL4, OCI-Ly-10, and TMD-8) and CLL (HG-3, JVM-3, and MEC-1) cell lines. Briefly: Caspase 3/7-Glo assay in DLBCL and CLL cell lines. It counts as cell-based. The settings on record: 6 h treatment.
For test [7], the system named is Ibrutinib-sensitive and Ibrutinib-resistant MCL cell lines. As to the kind of experiment: CTG assay in MCL cell lines. In kind it is cell-based. Conditions: in vitro.
For test [8], the system named is TMD-8 subcutaneous xenograft. As to the kind of experiment: TMD-8 (DLBCL) cell line-derived subcutaneous xenograft, tumor growth. In kind it is in vivo.
Text: See FIG. 3 (Data represented as mean±SEM. N=8, ***P<0.001, ****P<0.0001 by Mann-Whitney U test). […]
as §1

For test [9], the system named is Karpas-422 subcutaneous xenograft. Briefly: Karpas-422 subcutaneous xenograft, tumor growth. In kind it is in vivo. Conditions: Formula (I) 30 mg/kg intravenously QW, BID q2h.
Text: as §2

Molecules are shown by their SMILES.

Take `Cc1cnc(NC(=O)[C@H]2CCC[C@@H](NC(=O)CC#N)C2)cc1-c1cc(F)c2ncn(C(C)C)c2c1` [Formula (I)]: the “induction of apoptosis (caspase 3/7)” value in test [1] and in test [6] was “induction of apoptosis” in each case. Further, the tumor growth inhibition is reported as 40% in test [2] (Formula (I) alone, 30 mg/kg i.v. QW, BID q2h); 37% in [4] (Formula (I) monotherapy 7.5 mg/kg i.v. QW BID q2h); 125% in [5]; 49% in [8] (Example 1, FIG. 3, Formula (I) 7.5 mg/kg intravenously QW, BID q2h); 62% in [8] (Example 1, FIG. 3, Formula (I) 15 mg/kg intravenously QW, BID q2h); 83% in test [8] (Example 1, FIG. 3, Formula (I) 30 mg/kg intravenously QW, BID q2h). Also, the tumor growth inhibition in [8] (Example 2, FIG. 5, Formula (I) monotherapy 7.5 mg/kg i.v., BID q2h QW) is 46%; in test [8] (Example 3, FIG. 9, Formula (I) monotherapy 7.5 mg/kg i.v. QW BID q2h), 49%; in test [9], 108%. Moreover, the “tumor growth inhibition (in words)” value in test [3] is given as “significant tumor growth inhibition”. Also, in [7], the “activity in CTG assay (in words)” value was “shows activity”.

In the case of `CC1(C)CCC(CN2CCN(c3ccc(C(=O)NS(=O)(=O)c4ccc(NCC5CCOCC5)c([N+](=O)[O-])c4)c(Oc4cnc5[nH]ccc5c4)c3)CC2)=C(c2ccc(Cl)cc2)C1` [Venetoclax, reference compound], the tumor growth inhibition in test [4] (Venetoclax 50 mg/kg QD orally) is given as 37%.

`C=CC(=O)N1CCC([C@@H]2CCNc3c(C(N)=O)c(-c4ccc(Oc5ccccc5)cc4)nn32)CC1` [Zanubrutinib, reference compound]: the tumor growth inhibition in [2] (Zanubrutinib alone, 25 mg/kg QD orally) was 64%; in test [8] (Example 2, FIG. 5, Zanubrutinib 5 mg/kg, BID orally) it was 44%.

These data come from patent US20250281473A1, “CDK Inhibitors And Their Use As Pharmaceuticals” (PRELUDE THERAPEUTICS INCORPORATED, priority 2024, published 2025).
